Experimental data: patent US20240391923A1, “METHIONINE ADENOSYLTRANSFERASE 2A INHIBITOR FOR TREATING MTAP DELETION-TYPE CANCER” (SUZHOU GENHOUSE BIO CO., LTD., priority 2022, published 2024)
pIC50: −log10 of the molar value. Read-outs that look alike come from different tables or passages of the source.

How the values were obtained:
[1] = target: MAT2A recombinant protein (Homo sapiens, UniProt P31153); test: MAT2A inhibitory activity (malachite green colorimetric enzyme assay); type: biochemical
Sequence of MAT2A recombinant protein (P31153 whole entry): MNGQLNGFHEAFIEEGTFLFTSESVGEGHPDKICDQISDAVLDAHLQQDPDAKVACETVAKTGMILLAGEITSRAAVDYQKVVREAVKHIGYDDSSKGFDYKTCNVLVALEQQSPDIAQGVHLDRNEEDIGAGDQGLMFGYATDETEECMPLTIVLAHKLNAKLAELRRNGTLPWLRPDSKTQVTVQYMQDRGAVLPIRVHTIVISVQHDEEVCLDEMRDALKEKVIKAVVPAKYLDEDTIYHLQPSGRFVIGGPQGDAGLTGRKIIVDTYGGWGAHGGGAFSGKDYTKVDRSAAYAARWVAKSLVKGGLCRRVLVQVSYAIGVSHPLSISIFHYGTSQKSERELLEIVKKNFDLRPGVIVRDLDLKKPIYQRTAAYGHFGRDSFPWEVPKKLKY
In short: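 Compounds tested over 10 points, 3-fold dilutions, top final concentration 1000 nM. Enzyme reaction: MAT2A, L-methionine, ATP, room temperature, 60 min, in HEPES pH 7.5 buffer with KCl, MgCl2 and DTT; inorganic phosphate read colorimetrically (malachite green, A630). Inhibition vs log concentration fitted for IC50.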

[2] = system: SDMA in HCT116-MTAP-knockout cell line; test: Cell symmetric dimethylarginine (SDMA) test, In-cell Western, HCT116-MTAP-knockout; type: cell-based; conditions: Homo sapiens, 96 h
[3] = system: SDMA in human colon cancer cell line HCT116; test: Cell symmetric dimethylarginine (SDMA) test, In-cell Western, HCT116 (MTAP wild-type); type: cell-based; conditions: Homo sapiens, HCT-116, 96 h
Text: MAT2A catalyzes the reaction of L-methionine and ATP to generate SAM, inorganic phosphonic acid, and inorganic diphosphonic acid. SAM is an important methyl donor, and is a substrate of arginine methyltransferase 5 (PRMT5). PRMT5 catalyzes SDMA modification of multiple proteins within a cell. The intracellular SDMA modification level was detected by ICW (In-cell Western), and the inhibition of the test compound on the enzymatic activity of intracellular MAT2A was indirectly reflected.
In the present application, the human colon cancer cell line HCT116 and the corresponding HCT116-MTAP-knockout cell line were seeded into a 96-well cell culture plate at an appropriate cell density. After 24 h, the cells were treated using the test compounds diluted 1:4 fold at the highest concentration of 6 μM for 6 gradients, and a DMSO treatment group was set up separately. The cells were cultured in a 37° C./5% CO2 incubator for 4 days. To test the inhibitory activity of the test compounds against tumor cell SDMA, the medium was discarded, and the plate was washed 3 times with PBST. 4% paraformaldehyde was then used at room temperature for fixation for 20 min. The fixation solution was discarded, the plate was washed 3 times with PBST, and a special blocking solution was added to each well for blocking at room temperature for 2 h. The blocking solution was discarded. After the plate was washed 3 times with PBST, the plate was incubated with SDMA antibody at 4° C. overnight. The next day, the plate was washed 3 times with PBST. The secondary antibody and DRAQ5 were diluted to an appropriate concentration with the blocking solution, and incubated at room temperature for 2 h; the plate was washed 3 times with PBST, and the fluorescence signals at 700 nm and 800 nm were detected using a Li—COR Odyssey two-color near-infrared laser imager.
The data was then processed. After the corresponding background value was subtracted from each well, statistical analysis was performed on the 800 nm/700 nm ratio for each well, a sigmoidal dose-inhibition curve was plotted using a non-linear regression model, and IC50 values were fitted and calculated. Inhibition Rate (%)=(1−SDMA dose/SDMA DMSO control)*100. SDMA dose is the value of the drug treatment group, and SDMA DMSO control is the value of the DMSO control group.

[4] = system: HCT116-MTAP-knockout (−/−) cell strain; test: Tumor cell proliferation inhibition assay (CellTiter-Glo), HCT116-MTAP-knockout (-/-); type: cell-based; conditions: Homo sapiens, 120 h, 5-day treatment; for IC50: read-out: Tumor cell 5-day relative growth inhibition (HCT116-MTAP−/−) (nM), score; for pIC50: read-out: Tumor cell 5-day relative growth inhibition (HCT116-MTAP−/−)
Experimental: (§1) After the HCT116-MTAP-knockout (−/−) cell strain, the HCT116-MTAP wild-type(+/+)-cell strain, the DOHH-2 cell strain, or the Hut-78 cell strain was treated with the test compound for 5 days, the ATP level was measured using a CellTiter-Glo kit of Promega to evaluate the inhibition of the test compound against the growth of the tumor cell strain.
(§2) In the present application, the HCT116-MTAP-knockout (−/−) cell strain, the HCT116-MTAP wild-type (+/+)-cell strain, the DOHH-2 cell strain, or the Hut-78 cell strain was seeded into a 96-well cell culture plate at an appropriate cell density. After 24 h, the cells were treated using the test compounds diluted 1:3 fold at the highest concentration of 10 μM for 10 gradients, and a DMSO treatment group was set up separately. The cells were cultured in a 37° C./5% CO2 incubator for 5 days.

[5] = system: HCT116-MTAP wild-type (+/+)-cell strain; test: Tumor cell proliferation inhibition assay (CellTiter-Glo), HCT116-MTAP wild-type (+/+); type: cell-based; conditions: Homo sapiens, 120 h, 5-day treatment; for IC50: read-out: Tumor cell 5-day relative growth inhibition (HCT116-MTAP+/+) (nM), score; for pIC50: read-out: Tumor cell 5-day relative growth inhibition (HCT116-MTAP+/+)
Experimental: as §1, §2

[6] = IC50 score class, read-out: MAT2A Inhibition (score)
[7] = IC50 score class, read-out: Cell 96 h SDMA Inhibition (HCT116-MTAP−/−) (score)
[8] = read-out: Cell 96 h SDMA Inhibition (HCT116-MTAP−/−)
[9] = IC50 score class, read-out: Cell 96 h SDMA Inhibition (HCT116-MTAP+/+) (score)
[10] = read-out: Cell 96 h SDMA inhibition (HCT116-MTAP+/+)
[11] = HCT116-MTAP-knockout (−/−) cells, IC50 score
[12] = HCT116-MTAP-knockout (−/−) cells, IC50 value
[13] = HCT116-MTAP wild-type (+/+) cells, IC50 score
[14] = HCT116-MTAP wild-type (+/+) cells, IC50 value

SMILES | pIC50 [1, 6] | pIC50 ([1]; read-out: MAT2A Inhibition) | pIC50 [2, 7] | pIC50 [2, 8] | pIC50 [3, 9] | pIC50 [3, 10] | IC50 [4, 11] [nM] | pIC50 [4, 12] | IC50 [5, 13] [nM] | pIC50 [5, 14] | IC50 ([4]; HCT116-MTAP−/− cells, IC50 class score) [nM] | pIC50 ([4]; HCT116-MTAP−/− cells) | IC50 ([5]; HCT116-MTAP+/+ cells, IC50 class score) [nM] | pIC50 ([5]; HCT116-MTAP+/+ cells)
Cn1cnc2c(=O)n(-c3cccnc3C(F)(F)F)c3cc(Cl)c(F)cc3c21 [Compound B351] | > 7.00 | 7.59 | > 6.70 | 8.00 | < 5.52 | < 5.00 | 500 to 2000 | 6.12 | ≥ 2000 | < 5.00 |  |  |  | 
O=c1c2nn(C3CC3)cc2c2ccc(C(F)(F)F)nc2n1-c1cccc2[nH]ncc12 [Compound B250] | > 7.00 | 7.55 | 6.00 to 6.70 | 6.96 | < 5.52 | 5.40 | < 500 | 6.52 | 500 to 2000 | 6.03 |  |  |  | 
Cn1cc2c(n1)c(=O)n(-c1cccnc1C(F)(F)F)c1nc(C(F)(F)F)ccc21 [Compound B80] |  |  | 6.00 to 6.70 | 6.66 | < 5.52 | < 5.52 | < 500 | 7.09 | ≥ 2000 | 4.63 |  |  |  | 
Cn1cc2c(n1)c(=O)n(-c1cccnc1C1CC1)c1nc(C3CC3)c(F)cc21 [Compound B359] | > 7.00 | 8.02 | > 6.70 | 8.21 | < 5.52 | < 5.00 | < 500 | 7.06 | ≥ 2000 | < 5.00 |  |  |  | 
O=c1c2n[nH]cc2c2ccc(C(F)(F)F)nc2n1-c1cccc2[nH]ncc12 [Compound B239] | > 7.00 | 7.83 | > 6.70 | 7.96 | < 5.52 | < 5.00 | < 500 | 7.30 | < 500 | 6.32 |  |  |  | 
N#Cc1cc2c3c[nH]nc3c(=O)n(-c3cccc4[nH]ncc34)c2cc1Cl [Compound B394] | > 7.00 | 7.72 | > 6.70 | 7.59 | < 5.52 | < 5.00 |  |  |  |  | < 500 | 6.44 | ≥ 2000 | 5.16
O=c1c2nn(C(F)F)cc2c2cc(F)c(Cl)cc2n1-c1cccnc1C1CC1 [Compound B337] |  |  |  |  | < 5.52 | < 5.00 | 500 to 2000 | 6.24 | ≥ 2000 | < 5.00 |  |  |  | 
CN1CCN(c2nccc(Cn3cc4c(n3)c(=O)n(-c3cccc5[nH]ncc35)c3cc(Cl)c(F)cc43)n2)CC1 [Compound B333] | > 7.00 | 7.00 | > 6.70 | 7.01 | < 5.52 | < 5.00 | < 500 | 6.55 | 500 to 2000 | 6.26 |  |  |  | 
O=c1c2nn(C(F)F)cc2c2ccc(C(F)(F)F)nc2n1-c1cccnc1 [Compound B255] | > 7.00 | 7.71 | 6.00 to 6.70 | 6.65 | < 5.52 | 5.46 | 500 to 2000 | 5.93 | ≥ 2000 | 4.89 |  |  |  | 
CN1CCN(c2ccc(Cn3cc4c(n3)c(=O)n(-c3cccc5[nH]ncc35)c3cc(Cl)c(F)cc43)cn2)CC1 [Compound B268] | > 7.00 | 7.09 | 5.52 to 6.00 | 5.91 | < 5.52 | < 5.00 | ≥ 2000 | 5.44 | ≥ 2000 | 5.28 |  |  |  | 
Cn1cc2c(n1)c(=O)n(-c1cccnc1C(F)(F)F)c1cc(Cl)c(F)cc21 (single isomer, unassigned) [Compound B389] |  |  | > 6.70 | 7.70 | < 5.52 | < 5.00 | < 500 | 6.65 | ≥ 2000 | < 5.00 |  |  |  | 
Cn1cc2c(n1)c(=O)n(-c1cccc3[nH]ncc13)c1nc(C(F)(F)F)c(F)cc21 [Compound B274] | > 7.00 | 8.05 | 6.00 to 6.70 | 6.83 | 6.00 to 6.70 | 6.62 | < 500 | 7.14 | ≥ 2000 | < 5.00 |  |  |  | 
Cn1cnc2c(=O)n(-c3cccnc3C3CC3)c3cc(Cl)c(F)cc3c21 [Compound B336] | > 7.00 | 7.92 | > 6.70 | 7.73 | < 5.52 | < 5.00 | < 500 | 6.84 | ≥ 2000 | 5.01 |  |  |  | 
